How the values were obtained:
Assay in all cases: MIC susceptibility testing
Format in all cases: cell-based
[1] = tested on: Fusarium solani 18749; conditions: CLSI M38-A2
Method: (§1) Occidiofungin was purified from a liquid culture of Burkholderia contaminans MS14 as previously described ([21]). MIC susceptibility testing was performed according to the CLSI M27-A3 and M38-A2 standards for the susceptibility testing of yeasts and filamentous fungi, respectively. S. cerevisiae deletion mutants were obtained from the commercially available BY4741 deletion library (Thermo Scientific).

[2] = tested on: Candida auris MRL# 35646; conditions: CLSI M27-A3; 24 hours
Method: as §1

[3] = tested on: Trichophyton rubrum 28658; conditions: CLSI M38-A2; 96 hours
Method: as §1

[4] = tested on: Candida auris MRL# 35651; conditions: CLSI M27-A3; 24 hours
Method: as §1

[5] = tested on: Candida parapsilosis 28364; conditions: CLSI M27-A3
Method: as §1

Substance: occidiofungin
- MIC, 50% inhibition ([1]; 24 hours): 2 µg/mL
- MIC, 100% inhibition ([1]; 24 hours): 4 µg/mL
- MIC, 50% inhibition ([1]; 48 hours): 2 µg/mL
- MIC, 100% inhibition ([1]; 48 hours): 4 µg/mL
- MIC, 50% inhibition [2]: 0.125 µg/mL
- MIC, 100% inhibition [2]: 0.25 µg/mL
- MIC, 80% inhibition [3]: 1 µg/mL
- MIC, 100% inhibition [3]: 2 µg/mL
- MIC, 50% inhibition [4]: 0.125 µg/mL
- MIC, 100% inhibition [4]: 0.25 µg/mL
- MIC, 50% inhibition ([5]; 24 hours): 4 µg/mL
- MIC, 100% inhibition ([5]; 24 hours): 8 µg/mL
- MIC, 50% inhibition ([5]; 48 hours): 4 µg/mL
- MIC, 100% inhibition ([5]; 48 hours): 8 µg/mL

Source: article PMC6325233, “A Novel Actin Binding Drug with In Vivo Efficacy” (Antimicrobial Agents and Chemotherapy, 2018)
